Experimental data as given in ChEMBL document CHEMBL1150850, “Cytotoxic principles from Ventilago leiocarpa” (J Nat Prod, 2001).

Legend:
Raji [1] = assay: Growth inhibition of human Raji cells assessed as [3H]thymidine incorporation at 50 uM after 3 days by scintillation counting; format: functional; settings: read-out: GI
HeLa [2] = assay: Growth inhibition of human HeLa cells assessed as [3H]thymidine incorporation at 25 uM after 3 days by scintillation counting; format: functional; settings: read-out: GI
Calu-1 [3] = assay: Growth inhibition of human Calu1 cells assessed as [3H]thymidine incorporation at 3.125 uM after 3 days by scintillation counting; format: functional; settings: read-out: GI
[4] = Growth inhibition of african green monkey Vero cells assessed as [3H]thymidine incorporation at 25 uM after 3 days by scintillation counting; format: cell-based; settings: chlorocebus sabaeus, read-out: GI
WISH [5] = assay: Growth inhibition of human WISH cells assessed as [3H]thymidine incorporation at 50 uM after 3 days by scintillation counting; format: functional; settings: read-out: GI
Raji [6] = assay: Growth inhibition of human Raji cells assessed as [3H]thymidine incorporation at 6.25 uM after 3 days by scintillation counting; format: functional; settings: read-out: GI
Calu-1 [7] = assay: Growth inhibition of human Calu1 cells assessed as [3H]thymidine incorporation at 25 uM after 3 days by scintillation counting; format: functional; settings: read-out: GI
[8] = Growth inhibition of african green monkey Vero cells assessed as [3H]thymidine incorporation at 50 uM after 3 days by scintillation counting; format: cell-based; settings: chlorocebus sabaeus, read-out: GI
K562 [9] = assay: Growth inhibition of human K562 cells assessed as [3H]thymidine incorporation at 3.125 uM after 3 days by scintillation counting; format: functional; settings: read-out: GI
Calu-1 [10] = assay: Inhibition of human Calu1 cell proliferation assessed as [3H]thymidine incorporation after 3 days by scintillation counting; format: functional, cell-based
Raji [11] = assay: Growth inhibition of human Raji cells assessed as [3H]thymidine incorporation at 3.125 uM after 3 days by scintillation counting; format: functional; settings: read-out: GI
Raji [12] = assay: Growth inhibition of human Raji cells assessed as [3H]thymidine incorporation at 12.5 uM after 3 days by scintillation counting; format: functional; settings: read-out: GI
Calu-1 [13] = assay: Growth inhibition of human Calu1 cells assessed as [3H]thymidine incorporation at 12.5 uM after 3 days by scintillation counting; format: functional; settings: read-out: GI
Raji [14] = assay: Inhibition of human Raji cell proliferation assessed as [3H]thymidine incorporation after 3 days by scintillation counting; format: functional, cell-based
HeLa [15] = assay: Growth inhibition of human HeLa cells assessed as [3H]thymidine incorporation at 6.25 uM after 3 days by scintillation counting; format: functional; settings: read-out: GI
WISH [16] = assay: Growth inhibition of human WISH cells assessed as [3H]thymidine incorporation at 12.5 uM after 3 days by scintillation counting; format: functional; settings: read-out: GI
Raji [17] = assay: Growth inhibition of human Raji cells assessed as [3H]thymidine incorporation at 25 uM after 3 days by scintillation counting; format: functional; settings: read-out: GI
WISH [18] = assay: Growth inhibition of human WISH cells assessed as [3H]thymidine incorporation at 6.25 uM after 3 days by scintillation counting; format: functional; settings: read-out: GI
HeLa [19] = assay: Inhibition of human HeLa cell proliferation assessed as [3H]thymidine incorporation after 3 days by scintillation counting; format: functional, cell-based
[20] = Growth inhibition of african green monkey Vero cells assessed as [3H]thymidine incorporation at 6.25 uM after 3 days by scintillation counting; format: cell-based; settings: chlorocebus sabaeus, read-out: GI
K562 [21] = assay: Growth inhibition of human K562 cells assessed as [3H]thymidine incorporation at 12.5 uM after 3 days by scintillation counting; format: functional; settings: read-out: GI
WISH [22] = assay: Growth inhibition of human WISH cells assessed as [3H]thymidine incorporation at 3.125 uM after 3 days by scintillation counting; format: functional; settings: read-out: GI
Calu-1 [23] = assay: Growth inhibition of human Calu1 cells assessed as [3H]thymidine incorporation at 50 uM after 3 days by scintillation counting; format: functional; settings: read-out: GI
K562 [24] = assay: Growth inhibition of human K562 cells assessed as [3H]thymidine incorporation at 25 uM after 3 days by scintillation counting; format: functional; settings: read-out: GI
HeLa [25] = assay: Growth inhibition of human HeLa cells assessed as [3H]thymidine incorporation at 3.125 uM after 3 days by scintillation counting; format: functional; settings: read-out: GI
WISH [26] = assay: Growth inhibition of human WISH cells assessed as [3H]thymidine incorporation at 25 uM after 3 days by scintillation counting; format: functional; settings: read-out: GI
Vero [27] = assay: Inhibition of african green monkey Vero cell proliferation assessed as [3H]thymidine incorporation after 3 days by scintillation counting; format: cell-based; settings: Chlorocebus sabaeus
HeLa [28] = assay: Growth inhibition of human HeLa cells assessed as [3H]thymidine incorporation at 12.5 uM after 3 days by scintillation counting; format: functional; settings: read-out: GI
K562 [29] = assay: Growth inhibition of human K562 cells assessed as [3H]thymidine incorporation at 6.25 uM after 3 days by scintillation counting; format: functional; settings: read-out: GI
Vero [30] = assay: Growth inhibition of african green monkey Vero cells assessed as [3H]thymidine incorporation at 12.5 uM after 3 days by scintillation counting; format: cell-based; settings: chlorocebus sabaeus, 72 h
WISH [31] = assay: Inhibition of human WISH cell proliferation assessed as [3H]thymidine incorporation after 3 days by scintillation counting; format: functional, cell-based
Calu-1 [32] = assay: Growth inhibition of human Calu1 cells assessed as [3H]thymidine incorporation at 6.25 uM after 3 days by scintillation counting; format: functional; settings: read-out: GI
[33] = Growth inhibition of african green monkey Vero cells assessed as [3H]thymidine incorporation at 3.125 uM after 3 days by scintillation counting; format: cell-based; settings: chlorocebus sabaeus, read-out: GI
K562 [34] = assay: Growth inhibition of human K562 cells assessed as [3H]thymidine incorporation at 50 uM after 3 days by scintillation counting; format: functional; settings: read-out: GI
K562 [35] = assay: Inhibition of human K562 cell proliferation assessed as [3H]thymidine incorporation after 3 days by scintillation counting; format: functional, cell-based
HeLa [36] = assay: Growth inhibition of human HeLa cells assessed as [3H]thymidine incorporation at 50 uM after 3 days by scintillation counting; format: functional; settings: read-out: GI

Structure (SMILES): Cc1cc(O)c2c(c1)C(=O)c1c(c(O)cc(O)c1-c1c(O)cc(O)c3c1C(=O)c1cc(C)cc(O)c1C3=O)C2=O [SKYRIN]
- inhibition of growth at 50 µM (Raji [1]): 100%
- inhibition of growth at 25 µM (HeLa [2]): 100%
- inhibition of growth at 3.125 µM (Calu-1 [3]): 14.3%
- inhibition at 72 h, 25 µM [4]: 70.5%
- inhibition of growth at 50 µM (WISH [5]): 100%
- inhibition of growth at 6.25 µM (Raji [6]): 36.8%
- inhibition of growth at 25 µM (Calu-1 [7]): 100%
- inhibition at 72 h, 50 µM [8]: 100%
- inhibition of growth at 3.125 µM (K562 [9]): 29.7%
- IC50 (Calu-1 [10]): 15.5 µM
- inhibition of growth at 3.125 µM (Raji [11]): 33.8%
- inhibition of growth at 12.5 µM (Raji [12]): 48.1%
- inhibition of growth at 12.5 µM (Calu-1 [13]): 24.9%
- IC50 (Raji [14]): 12.3 µM
- inhibition of growth at 6.25 µM (HeLa [15]): 27%
- inhibition of growth at 12.5 µM (WISH [16]): 37.8%
- inhibition of growth at 25 µM (Raji [17]): 82.1%
- inhibition of growth at 6.25 µM (WISH [18]): 23.4%
- IC50 (HeLa [19]): 11.3 µM
- inhibition at 72 h, 6.25 µM [20]: 23.1%
- inhibition of growth at 12.5 µM (K562 [21]): 33.5%
- inhibition of growth at 3.125 µM (WISH [22]): 24.7%
- inhibition of growth at 50 µM (Calu-1 [23]): 100%
- inhibition of growth at 25 µM (K562 [24]): 50.6%
- inhibition of growth at 3.125 µM (HeLa [25]): 5.8%
- inhibition of growth at 25 µM (WISH [26]): 60%
- IC50 (Vero [27]): 18.3 µM
- inhibition of growth at 12.5 µM (HeLa [28]): 55%
- inhibition of growth at 6.25 µM (K562 [29]): 22.2%
- growth inhibition (GI) (Vero [30]): 34.8%
- IC50 (WISH [31]): 21.3 µM
- inhibition of growth at 6.25 µM (Calu-1 [32]): 20.6%
- inhibition at 72 h, 3.125 µM [33]: 19.9%
- inhibition of growth at 50 µM (K562 [34]): 100%
- IC50 (K562 [35]): 27.3 µM
- inhibition of growth at 50 µM (HeLa [36]): 100%

Structure (SMILES): Cc1cc(O)c2c(c1O)C(=O)c1cccc(O)c1C2=O [ISLANDICIN]
- IC50 (Calu-1 [10]): > 100 µM
- IC50 (Raji [14]): > 100 µM
- IC50 (HeLa [19]): > 100 µM
- IC50 (Vero [27]): > 100 µM
- IC50 (WISH [31]): > 100 µM
- IC50 (K562 [35]): > 100 µM

Structure (SMILES): CC1(C)CC[C@]2(C)CC=C3[C@]4(C)CC[C@H]5C(C)(C)[C@@H](O)CC[C@]5(C)[C@H]4CC[C@@]3(C)[C@@H]2C1 [TARAXEROL]
- IC50 (Calu-1 [10]): > 100 µM
- IC50 (Raji [14]): > 100 µM
- IC50 (HeLa [19]): > 100 µM
- IC50 (Vero [27]): > 100 µM
- IC50 (WISH [31]): > 100 µM
- IC50 (K562 [35]): > 100 µM

Structure (SMILES): C=C(C)[C@@H]1CC[C@]2(C)CC[C@]3(C)[C@H](CC[C@@H]4[C@@]5(C)CC[C@H](O)C(C)(C)[C@@H]5CC[C@]43C)[C@@H]12 [LUPEOL]
- IC50 (Calu-1 [10]): > 100 µM
- IC50 (Raji [14]): > 100 µM
- IC50 (HeLa [19]): > 100 µM
- IC50 (Vero [27]): > 100 µM
- IC50 (WISH [31]): > 100 µM
- IC50 (K562 [35]): > 100 µM

Structure (SMILES): CC[C@H](/C=C/[C@@H](C)[C@H]1CC[C@H]2[C@@H]3CC=C4C[C@@H](O)CC[C@]4(C)[C@H]3CC[C@]12C)C(C)C [STIGMASTEROL]
- IC50 (Calu-1 [10]): > 100 µM
- IC50 (Raji [14]): > 100 µM
- IC50 (HeLa [19]): > 100 µM
- IC50 (Vero [27]): > 100 µM
- IC50 (WISH [31]): > 100 µM
- IC50 (K562 [35]): > 100 µM

Structure (SMILES): O=C1c2c(O)cc(O)cc2O[C@H](c2ccc(O)cc2)[C@H]1O [DIHYDROKAEMPFEROL]
- IC50 (Calu-1 [10]): > 100 µM
- IC50 (Raji [14]): > 100 µM
- IC50 (HeLa [19]): > 100 µM
- IC50 (Vero [27]): > 100 µM
- IC50 (WISH [31]): > 100 µM
- IC50 (K562 [35]): > 100 µM

Structure (SMILES): Cc1cc(O)c2c(c1O)C(=O)c1cc(O)cc(O)c1C2=O [CATENARIN]
- IC50 (Calu-1 [10]): > 100 µM
- IC50 (Raji [14]): > 100 µM
- IC50 (HeLa [19]): > 100 µM
- IC50 (Vero [27]): > 100 µM
- IC50 (WISH [31]): > 100 µM
- IC50 (K562 [35]): > 100 µM
